How the values were obtained:
Type in all cases: in vivo
[1] = test system: Bursaphelenchus xylophilus; assay: Bursaphelenchus xylophilus control test (cotton ball test method); parameters: key: Score 1: no influence on feeding (no effect); Score 2: feeding degree of 41% or more; Score 3: feeding degree of 21 to 40%; Score 4: feeding degree of 20% or less; Score 5: no feeding (great effect); conditions: 26° C., 5 days
Procedure: As a Bursaphelenchus xylophilus control test, the cotton ball test method was used to confirm the inhibitory effect on the proliferation of Bursaphelenchus xylophilus. […] The pressure was reduced in a desiccator for about 30 minutes, the solvent was removed by evaporation, and a test cotton ball was obtained. In addition, the gray mold as the test bacterium was cultured at 22° C. for 4 days in a Petri dish containing potato dextrose agar medium. Then, the test cotton ball was placed in the center of the Petri dish, and 1500 Bursaphelenchus xylophilus (100 μL of solution) were injected therein. This Petri dish was cultured at 26° C. for 5 days, and the feeding degree of the gray mold by Bursaphelenchus xylophilus was evaluated based on the following evaluation criteria. Further, evaluation was performed in the same manner when morantel was used instead of the compound (1) or (2).
Score 1: no influence on feeding (no effect)
Score 2: feeding degree of 41% or more
Score 3: feeding degree of 21 to 40%
Score 4: feeding degree of 20% or less
Score 5: no feeding (great effect)

Ascaridia galli = Ascaridia galli control test (in vitro); conditions: 50 ppm; 24 hours; 42° C.
Procedure: To 10 mL of a chemical solution prepared by using Ringer's solution so that the compound (1) or the compound (2) would have a predetermined concentration, 6 Ascaridia galli were introduced, and the solution was cultured in a water bath at 42° C. The number of surviving worms was counted 24 hours after the start of culture, and the mortal worm rate was calculated.

Cucumber seeds = assay: Cucumber phytotoxicity test (seed dressing); conditions: 0.5 mg/seed, 10 days after sowing; for Germination Count: sowing count 5
Procedure: Cucumber seeds were sown one by one in a 3 cm styrene cup filled with sterilized soil, where the seeds had been subjected to dressing treatment with a dressing dust presented in Formulation Example 1 or Formulation Example 2 so that the amount treated of the compound (1) or compound (2) would be a predetermined amount.
The germination rate was calculated 10 days after sowing. In addition, the germination rate was also calculated in the same manner for the case of sowing seeds treated with fluensulfone instead of Formulation Example 1 (compound (1)) or Formulation Example 2 (compound (2)) and for the case of sowing seeds treated with none of the compounds.

Hymenolepis diminuta = Hymenolepis diminuta control test in infected rats; conditions: oral 20 mg/kg, 7 days after administration
Text: Rats were previously infected with Hymenolepis diminuta to prepare infected rats.

Meloidogyne incognita [2] = assay: Meloidogyne incognita control test 1 (seed dressing); conditions: cucumber; seed dressing 0.5 mg/seed; 21 days after inoculation
Procedure: Cucumber seeds were sown one by one in a 3 cm styrene cup filled with sterilized soil, where the seeds had been subjected to dressing treatment with a dressing dust presented in Formulation Example 1 so that the amount treated of the compound (1) would be a predetermined amount. Then, 10 days after sowing, 200 counts/mL of the second stage larval solution of Meloidogyne incognita was inoculated at 1 mL for each seed. Then, 21 days after the inoculation, the degree of gall formation on the cucumber root was classified by a visual inspection based on the following 6-level gall formation degree criteria, and the gall index was calculated. In addition, the gall index was also calculated in the same manner for the case of sowing seeds treated with paraherquamide A instead of Formulation Example 1 (compound (1)) and for the case of sowing seeds treated with none of the compounds.
(§1) Gall index=(0×a+1×b+2×c+3×d+4×e+5×f)/((a+b+c+d+e+f) ×5)×100 • a: number of strains that meet the gall formation degree criteria of 0, b: number of strains that meet the gall formation degree criteria of 1, c: number of strains that meet the gall formation degree criteria of 2, d: number of strains that meet the gall formation degree criteria of 3, e: number of strains that meet the gall formation degree criteria of 4, and f: number of strains that meet the gall formation degree criteria of 5. […]

Heterodera glycines = Heterodera glycines control test (in vitro); conditions: 10 ppm; second stage larvae; 2 days after addition; 25° C.
Procedure: Each well of a 24-well plate was charged with 1 mL of a chemical solution prepared to have a final concentration of 0.1% acetone and a predetermined concentration of the compound (1), in which 20 to 30 larvae of Heterodera glycines at the second stage were released and left to stand in the dark at 25° C. The number of surviving and moribund worms 2 days after the addition of the chemical solution was measured. In addition, the number of surviving and moribund worms in the untreated group not treating the compound (1) was measured in the same manner, and the corrected mortal worm rate was calculated by the following formula.
Corrected mortal worm rate (%)={(mortal worm rate of treated group−mortal worm rate of untreated group)/(100−mortal worm rate of untreated group)}×100

Meloidogyne incognita [3] = assay: Meloidogyne incognita control test (soil irrigation); conditions: cucumber; soil irrigation 100 ppm, 3 mL; 21 days after inoculation
Procedure: Cucumber seeds were sown one by one in a 3 cm styrene cup filled with sterilized soil. After germination, 3 mL each of a chemical solution prepared with 10% acetone water was irrigated into the soil so that the compound (1) would be 100 ppm when irrigated into the soil. After 1 hour, 200 counts/mL of the second stage larval solution of Meloidogyne incognita were inoculated at 1 mL/pot. Then, 21 days after the inoculation, the degree of gall formation on the cucumber root was classified by a visual inspection based on the following 6-level gall formation degree criteria, and the gall index was calculated. In addition, the gall index, in the case of the treated group not treating the compound (1) (untreated), was also calculated in the same manner.
as §1, with “index=(0×a+1×b+2×c+3×d+4×e+5×f)/((a+b+c+d+e+f)×5)×100” for “index=(0×a+1×b+2×c+3×d+4×e+5×f)/((a+b+c+d+e+f) ×5)×100 •”

wheat = assay: Wheat growth effect test; conditions: 3 days; for Plant Height Relative to Untreated: untreated = 100; for Plant Height: root immersion
Procedure: Each well of a 24-well plate was charged with 200 μL of a chemical solution prepared to have a final concentration of 10% acetone and a predetermined concentration of the compound (1), and the root of the sprouting wheat was immersed therein. Then, 3 days after the immersion, the plant height of the stems and leaves was measured to evaluate the effect of the compound (1) on the growth of wheat. In addition, the plant height of the stems and leaves was also measured for the case of sowing seeds not treated with the compound (1) (untreated). Note that Table 8 also presents the relative values of plant height (relative to untreated) when the untreated case was set to 100.

Cc1ccsc1/C=C/C1=NCCCN1C [Morantel, morantel, reference compound]
Score (feeding degree of the gray mold) ([1]; 5 μg/cotton ball, 50 ppm): 5

C[C@H]1CCN2C[C@@]34C[C@]5(CC(=O)N(C)C5=O)C(C)(C)[C@@H]3C[C@]12C(=O)N4C [Compound (2), asperparaline A]
mortal worm rate (Ascaridia galli): 0
Score (feeding degree of the gray mold) ([1]; 20 μg/cotton ball, 200 ppm): 1
Germination Rate (Cucumber seeds): 100%
Germination Count (Cucumber seeds): 5
control effect (Hymenolepis diminuta): no effect

O=S(=O)(CCC(F)=C(F)F)c1ncc(Cl)s1 [Fluensulfone, fluensulfone, reference compound]
Germination Rate (Cucumber seeds): 0%
Germination Count (Cucumber seeds): 0

C[C@H]1CC(=O)N2C[C@]34C[C@]5(CC(=O)N(C)C5=O)C(C)(C)[C@@H]3CC12C(=O)N4C [Compound (1), 16-keto-aspergillimide]
Gall Index (Meloidogyne incognita [2]): 8
mortal worm rate (Ascaridia galli): 0
corrected mortal worm rate (Heterodera glycines): 100%
Score (feeding degree of the gray mold) ([1]; 20 μg/cotton ball, 200 ppm): 1
Gall Index (Meloidogyne incognita [3]): 0
Plant Height Relative to Untreated (wheat; 50 ppm): 106.1
Plant Height (wheat; 50 ppm): 9.87 cm
Plant Height Relative to Untreated (wheat; 100 ppm): 98.9
Plant Height (wheat; 100 ppm): 9.20 cm
Plant Height Relative to Untreated (wheat; 200 ppm): 98.9
Plant Height (wheat; 200 ppm): 9.20 cm
Germination Rate (Cucumber seeds): 100%
Germination Count (Cucumber seeds): 5
control effect (Hymenolepis diminuta): no effect

CN1C(=O)[C@]23C[C@@H]4C(C)(C)[C@@]5(C[C@@]41CN2CC[C@@]3(C)O)C(=O)Nc1c5ccc2c1OC=CC(C)(C)O2 [Paraherquamide A, paraherquamide A, reference compound]
Gall Index (Meloidogyne incognita [2]): 44

Reference: patent publication US12439921B2 (priority 2019, dated 2025)
